What all share (assay type): cell-based
One assay has as its target T1, human TLR9 (Homo sapiens, UniProt Q9NR96).
T1 construct: host or cells: HEK-Blue cells (HEK293-derived reporter line)
T1 sequence (Q9NR96 26-1032): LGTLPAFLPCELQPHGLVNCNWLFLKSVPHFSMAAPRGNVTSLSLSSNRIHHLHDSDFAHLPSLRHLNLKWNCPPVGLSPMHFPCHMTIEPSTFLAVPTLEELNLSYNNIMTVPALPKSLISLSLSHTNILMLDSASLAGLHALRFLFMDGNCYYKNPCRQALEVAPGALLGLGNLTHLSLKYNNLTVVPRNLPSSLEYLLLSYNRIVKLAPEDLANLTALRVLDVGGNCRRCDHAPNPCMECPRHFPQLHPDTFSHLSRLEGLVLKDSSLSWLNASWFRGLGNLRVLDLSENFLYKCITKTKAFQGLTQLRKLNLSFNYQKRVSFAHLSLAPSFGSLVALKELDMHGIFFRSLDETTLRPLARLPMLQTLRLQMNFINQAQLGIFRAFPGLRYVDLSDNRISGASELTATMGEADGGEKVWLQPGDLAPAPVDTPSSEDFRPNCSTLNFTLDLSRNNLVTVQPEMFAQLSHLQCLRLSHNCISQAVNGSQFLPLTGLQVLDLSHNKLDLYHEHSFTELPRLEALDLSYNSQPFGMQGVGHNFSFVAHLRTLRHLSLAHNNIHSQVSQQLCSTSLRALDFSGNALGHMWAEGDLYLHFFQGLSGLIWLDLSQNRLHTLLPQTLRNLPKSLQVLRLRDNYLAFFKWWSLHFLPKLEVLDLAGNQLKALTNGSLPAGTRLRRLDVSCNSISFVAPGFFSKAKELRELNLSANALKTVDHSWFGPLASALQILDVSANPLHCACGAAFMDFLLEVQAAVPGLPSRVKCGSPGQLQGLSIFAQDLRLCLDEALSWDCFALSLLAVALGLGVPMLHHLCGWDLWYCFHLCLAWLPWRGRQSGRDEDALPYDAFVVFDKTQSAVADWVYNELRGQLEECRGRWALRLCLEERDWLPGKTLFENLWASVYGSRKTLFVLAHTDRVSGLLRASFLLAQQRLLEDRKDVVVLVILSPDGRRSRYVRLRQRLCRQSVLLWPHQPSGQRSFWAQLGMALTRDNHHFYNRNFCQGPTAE
The experiment in a line: TLR9 inhibition reporter assay (HEK-Blue cells, secreted embryonic alkaline phosphatase reporter). The gist of the method:
(§1)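 HEK-Blue cells overexpressing the respective receptor, with an NF-κB/AP-1-driven SEAP reporter, were pre-treated with compound (0.05 nM–50 μM) for 30 min at room temperature. Stimulation used gardiquimod 7.5 μM (TLR7), R848 15.9 μM (TLR8) or ODN2006 5 nM (TLR9); SEAP was read after 22 h at 37 °C as percent inhibition.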
In general terms: Reporter assays use an easily measured gene product as a stand-in for the process of interest.

The target of another assay is T2, human TLR8 (Homo sapiens, UniProt Q9NR97).
T2 construct: host or cells: HEK-Blue cells (HEK293-derived reporter line)
T2 sequence (Q9NR97 27-1041): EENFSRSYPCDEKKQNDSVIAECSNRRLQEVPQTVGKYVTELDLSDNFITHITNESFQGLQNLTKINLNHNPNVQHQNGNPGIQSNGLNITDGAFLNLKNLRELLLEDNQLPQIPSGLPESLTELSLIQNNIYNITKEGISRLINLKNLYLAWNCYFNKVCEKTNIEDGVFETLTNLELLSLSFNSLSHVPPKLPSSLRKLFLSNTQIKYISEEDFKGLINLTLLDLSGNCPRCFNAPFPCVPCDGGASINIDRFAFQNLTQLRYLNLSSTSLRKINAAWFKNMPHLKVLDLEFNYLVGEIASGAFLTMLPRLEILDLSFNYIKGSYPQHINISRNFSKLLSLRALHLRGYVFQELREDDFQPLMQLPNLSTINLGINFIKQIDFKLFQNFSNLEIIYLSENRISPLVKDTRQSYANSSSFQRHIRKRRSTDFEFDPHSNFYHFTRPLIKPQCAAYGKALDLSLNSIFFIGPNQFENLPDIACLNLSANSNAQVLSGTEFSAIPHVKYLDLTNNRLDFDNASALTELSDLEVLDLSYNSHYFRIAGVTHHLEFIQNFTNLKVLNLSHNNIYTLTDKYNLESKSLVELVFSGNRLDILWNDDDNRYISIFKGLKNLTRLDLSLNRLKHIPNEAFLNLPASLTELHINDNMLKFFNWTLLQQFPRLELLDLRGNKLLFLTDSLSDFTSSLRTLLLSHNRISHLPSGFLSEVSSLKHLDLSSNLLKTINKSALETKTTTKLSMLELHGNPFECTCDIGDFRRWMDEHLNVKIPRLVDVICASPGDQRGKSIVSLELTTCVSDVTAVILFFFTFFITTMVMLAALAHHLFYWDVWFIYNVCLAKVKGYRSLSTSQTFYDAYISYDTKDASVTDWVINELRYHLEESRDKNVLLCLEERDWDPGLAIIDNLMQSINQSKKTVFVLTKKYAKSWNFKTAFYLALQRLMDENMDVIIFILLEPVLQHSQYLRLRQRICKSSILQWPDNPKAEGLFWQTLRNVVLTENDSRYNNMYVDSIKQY
The experiment in a line: TLR8 inhibition reporter assay (HEK-Blue cells, secreted embryonic alkaline phosphatase reporter). The note with it: HEK-Blue cells overexpressing human TLR8, stimulated with R848 15.9 μM; read-out: TLR 8 IC50. The gist of the method:
as §1

A further assay addresses T3, human TLR7 (Homo sapiens, UniProt Q9NYK1).
T3 construct: host or cells: HEK-Blue cells (HEK293-derived reporter line)
T3 sequence (Q9NYK1 27-1049): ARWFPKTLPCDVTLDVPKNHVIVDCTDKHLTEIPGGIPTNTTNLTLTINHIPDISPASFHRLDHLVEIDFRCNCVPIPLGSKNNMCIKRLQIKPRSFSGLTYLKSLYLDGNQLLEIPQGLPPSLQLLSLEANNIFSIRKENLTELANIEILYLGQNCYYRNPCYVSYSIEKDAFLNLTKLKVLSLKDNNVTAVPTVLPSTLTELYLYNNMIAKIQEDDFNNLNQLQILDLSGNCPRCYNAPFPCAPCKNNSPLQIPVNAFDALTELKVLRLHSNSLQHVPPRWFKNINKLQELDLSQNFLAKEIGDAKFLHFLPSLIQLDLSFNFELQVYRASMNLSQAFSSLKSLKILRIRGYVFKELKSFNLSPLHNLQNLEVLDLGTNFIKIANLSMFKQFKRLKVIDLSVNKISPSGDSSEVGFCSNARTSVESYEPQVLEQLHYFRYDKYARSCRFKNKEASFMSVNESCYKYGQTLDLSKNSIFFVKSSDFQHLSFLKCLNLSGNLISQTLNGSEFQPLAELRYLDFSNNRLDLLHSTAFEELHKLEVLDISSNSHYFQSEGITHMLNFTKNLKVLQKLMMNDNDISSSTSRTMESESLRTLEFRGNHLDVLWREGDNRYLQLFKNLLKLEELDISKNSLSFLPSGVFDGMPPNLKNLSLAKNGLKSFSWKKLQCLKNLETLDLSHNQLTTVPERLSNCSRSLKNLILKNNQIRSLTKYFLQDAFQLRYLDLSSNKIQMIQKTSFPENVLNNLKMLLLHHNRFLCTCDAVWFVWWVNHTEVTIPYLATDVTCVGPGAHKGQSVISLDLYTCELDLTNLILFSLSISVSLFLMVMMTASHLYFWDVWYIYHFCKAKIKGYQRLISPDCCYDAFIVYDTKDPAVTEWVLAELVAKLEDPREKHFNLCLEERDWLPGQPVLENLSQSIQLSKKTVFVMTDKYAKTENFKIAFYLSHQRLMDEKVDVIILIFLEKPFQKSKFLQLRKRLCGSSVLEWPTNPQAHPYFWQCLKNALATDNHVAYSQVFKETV
Briefly: TLR7 inhibition reporter assay (HEK-Blue cells, secreted embryonic alkaline phosphatase reporter). The note with it: HEK-Blue cells overexpressing human TLR7, stimulated with gardiquimod 7.5 μM; read-out: TLR 7 IC50. The gist of the method: as §1

[1] abbreviates: HEK-Blue cells overexpressing human TLR9, stimulated with ODN2006 5 nM, read-out: TLR 9 IC50.

pIC50: −log10 of the molar value. Like-named read-outs stand apart in the source and are kept apart here. Where only a bound is given, the exact number is not on record here.

By pIC50 is commonly meant −log10 of the IC50, conventionally taken in molar units. Turning to `Cn1c(-c2ccc(S(C)(=O)=O)cc2)nc2cc(F)c(C3CCN(C4CC5CCC(C4)N5C4COC4)CC3)cc21` (single isomer, unassigned) [Example 234, 5-fluoro-1-methyl-2-(4-(methylsulfonyl)phenyl)-6-(1-(8-(oxetan-3-yl)-8-azabicyclo[3.2.1]octan-3-yl)piperidin-4-yl)-1H-benzo[d]imidazole], the pIC50 against human TLR9 was 6.82; on human TLR9 (setting [1]), 6.82; at human TLR8, under 4.30; on human TLR7, under 4.30.
As to `Cn1c(-c2ccc(S(C)(=O)=O)cc2)nc2cc(F)c(C3CCN(C4CC5CCC(C4)N5C4COC4)CC3)cc21` (single isomer, unassigned) [Example 235, 5-fluoro-1-methyl-2-(4-(methylsulfonyl)phenyl)-6-(1-(8-(oxetan-3-yl)-8-azabicyclo[3.2.1]octan-3-yl)piperidin-4-yl)-1H-benzo[d]imidazole], the negative-log IC50 (pIC50) on human TLR9 was 5.77; at human TLR9 (setting [1]) it was 5.76; on human TLR8 it was under 4.30; at human TLR7, under 4.30.
Turning to `COCCN1C2CCC1CC(N1CCC(c3cc4c(cc3F)nc(-c3ccc(S(C)(=O)=O)cc3)n4C)CC1)C2` (single isomer, unassigned) [Example 238, 5-fluoro-6-(1-(8-(2-methoxyethyl)-8-azabicyclo[3.2.1]octan-3-yl)piperidin-4-yl)-1-methyl-2-(4-(methylsulfonyl)phenyl)-1H-benzo[d]imidazole], the pIC50 against human TLR9 is 7.24; on human TLR9 (setting [1]) it was 7.24; at human TLR8 it was under 4.30; on human TLR7 it was 4.46.
Regarding `COCCN1C2CCC1CC(N1CCC(c3cc4c(cc3F)nc(-c3ccc(S(C)(=O)=O)cc3)n4C)CC1)C2` (single isomer, unassigned) [Example 239, 5-fluoro-6-(1-(8-(2-methoxyethyl)-8-azabicyclo[3.2.1]octan-3-yl)piperidin-4-yl)-1-methyl-2-(4-(methylsulfonyl)phenyl)-1H-benzo[d]imidazole], the negative logarithm of the IC50 (pIC50) on human TLR9 is 6.54; on human TLR9 (setting [1]), 6.54; at human TLR8, under 4.30; on human TLR7 it was at most 4.29.
Take `Cn1c(-c2ccc(S(C)(=O)=O)cc2)nc2cc(C3CCN(C4CC5CCC(C4)N5CC4CC4)CC3)c(F)cc21` (single isomer, unassigned) [Example 249, 5-(1-(8-(cyclopropylmethyl)-8-azabicyclo[3.2.1]octan-3-yl)piperidin-4-yl)-6-fluoro-1-methyl-2-(4-(methylsulfonyl)phenyl)-1H-benzo[d]imidazole]: the pIC50 against human TLR9 is 7.49; on human TLR9 (setting [1]), 7.49; at human TLR8, under 4.30; on human TLR7 it was 4.67.
Regarding `Cn1c(-c2ccc(S(C)(=O)=O)cc2)nc2cc(C3CCN(C4CC5CCC(C4)N5CC4CC4)CC3)c(F)cc21` (single isomer, unassigned) [Example 250, 5-(1-(8-(cyclopropylmethyl)-8-azabicyclo[3.2.1]octan-3-yl)piperidin-4-yl)-6-fluoro-1-methyl-2-(4-(methylsulfonyl)phenyl)-1H-benzo[d]imidazole], the negative logarithm of the IC50 (pIC50) on human TLR9 is 6.96; on human TLR9 (setting [1]), 6.96; on human TLR8 it was under 4.30; on human TLR7 it was 4.44.
`Cn1c(-c2ccc(S(C)(=O)=O)cc2)nc2cc(C3CCN(C4CC5CCC(C4)N5C4COC4)CC3)c(F)cc21` (single isomer, unassigned) [Example 253, 6-fluoro-1-methyl-2-(4-(methylsulfonyl)phenyl)-5-(1-(8-(oxetan-3-yl)-8-azabicyclo[3.2.1]octan-3-yl)piperidin-4-yl)-1H-benzo[d]imidazole]: the negative logarithm of the IC50 (pIC50) against human TLR9 was 6.55; at human TLR9 (setting [1]), 6.56; at human TLR8 it was under 4.30; at human TLR7 it was under 4.30.
As for `Cn1c(-c2ccc(S(C)(=O)=O)cc2)nc2cc(C3CCN(C4CC5CCC(C4)N5C4COC4)CC3)c(F)cc21` (single isomer, unassigned) [Example 254, 6-fluoro-1-methyl-2-(4-(methylsulfonyl)phenyl)-5-(1-(8-(oxetan-3-yl)-8-azabicyclo[3.2.1]octan-3-yl)piperidin-4-yl)-1H-benzo[d]imidazole], the pIC50 on human TLR9 was 5.28; on human TLR9 (setting [1]), 5.27; on human TLR8, under 4.30; on human TLR7 it was under 4.30.
Turning to `Cn1c(-c2ccc(S(C)(=O)=O)cc2)nc2cc(C3CCN(C4CC5CCC(C4)N5C4CCOCC4)CC3)c(F)cc21` (single isomer, unassigned) [Example 255, 6-fluoro-1-methyl-2-(4-(methylsulfonyl)phenyl)-5-(1-(8-(tetrahydro-2H-pyran-4-yl)-8-azabicyclo[3.2.1]octan-3-yl)piperidin-4-yl)-1H-benzo[d]imidazole], the negative-log IC50 (pIC50) was 7.14 against human TLR9, 7.14 at human TLR9 (setting [1]), under 4.30 at human TLR8 and under 4.30 at human TLR7.

These data come from patent publication US12492188B2, “1H-benzo[D]imidazole derivatives as TLR9 inhibitors for the treatment of fibrosis” (BRISTOL-MYERS SQUIBB COMPANY, priority 2020, dated 2025).
